{"source": "patent US20100075370A1", "about": "“METHOD FOR DETERMINATION OF CELL VIABILITY BY USING FLOW CYTOMETRY WITH FIXED VOLUME ACQUISITION” (TUMORTEC GMBH, priority 2006, published 2010)", "key": {"[1]": {"tested_on": "pBMC from patients with CLL", "experiment": "Cytotoxicity of several antineoplastic agents on pBMC (LC90), fixed volume flow cytometry", "format": "cell-based, human", "conditions": "in µg/mL", "description": "The necessary peripheral blood (PB) samples from adult patients diagnosed with chronic lymphatic leukaemia (CLL) were collected into heparin during routine diagnosis prior to administration of chemotherapy."}, "[2]": {"tested_on": "Peripheral blood mononuclear cells (pBMC) from a patient with chronic lymphatic leukaemia", "experiment": "Cytotoxicity of fludarabine phosphate on mononuclear cells, flow cytometry with fixed volume acquisition (PI exclusion)", "format": "cell-based, human", "conditions": "96 h; for relative cell survival: 100% = without fludarabine phosphate", "protocol": "The peripheral blood mononuclear cells (pBMC) used in the examples were isolated from peripheral blood samples as described before (Staib, P. et al., Br. J. Haematol., 128(6):783-91 (2005)). The necessary peripheral blood (PB) samples from adult patients diagnosed with chronic lymphatic leukaemia (CLL) were collected into heparin during routine diagnosis prior to administration of chemotherapy.\nPlate precoating with different amounts of fludarabine phosphate: 50 μl/well of an aqueous fludarabine phosphate solution were given in a 96-well microtiter plate (Greiner BioOne, Frickenhausen, Germany). Four different fludarabine phosphate concentrations (25; 8.33; 2.78; 0.93 μg/ml) were used. The control wells were kept empty. The plates were placed into an exsiccator and dried under vacuum for 8 h.\nPeripheral blood mononuclear cells (pBMC) from a patient with chronic lymphatic leukaemia were isolated from the PB samples as described before (Staib, P. et al., Br. J. Haematol., 128(6):783-91 (2005)), resuspended in RPMI 1640 medium (Biochrom, Berlin, Germany) containing 20 vol. % fetal calf serum (FCS; Biochrom, Berlin, Germany) and added into the precoated 96-well plate with a final cell concentration of 10,000 cells/well and a volume of 100 μl. The plates were then agitated for 15 min in order to solubilize the dried fludarabine phosphate. Subsequently, the plates were incubated for 96 h (37° C., 5% CO2, humidified atmosphere). Thereafter, 50 μl of an 11 μM propidium iodide (PI)-solution in 0.9% aqueous NaCl solution (NaCl 0.9%) (Invitrogen, Leiden, Netherlands) were added and incubated for 15 min at room temperature. PI is a standard flow cytometric viability probe and is used to distinguish viable from nonviable cells. Viable cells with intact membranes exclude PI, whereas the membranes of dead and damaged cells are permeable to PI. PI only stains cells with compromised cell membrane, whilst live cells which have intact membranes are not stained by PI.\nThe plates were then analyzed using a FACSArray (BD Biosciences, San Jose, Calif., USA) flow cytometer. The following instrument settings were used:\n2.0 μl/s sample flow rate\n20 μl sample volume (n. b.: this is no absolute amount, but the set value of the instrument. Thus, the actual volume aspirated and analyzed by the instrument may be higher or lower than 20 μl: however, this actual volume is invariant from sample to sample during the analysis.)\n500,000 maximum events (i.e. the number of maximum events exceeds the actual cell number in the sample considerably)\nAn identical fixed volume (preset sample volume on instrument: 20 μl) was aspirated from each sample and the absolute amount of living cells was counted. Living cells were defined as events with cellular light scatter characteristics and being negative for PI.\nAfter switch-on and before analyzing a new kind of sample the flow cytometer must be re-calibrated. […] In addition cut-off values can be defined. Signals below this cut-off will be excluded from data acquisition. All cells with signal intensities above the cut-off are counted. The rectangle shown in FIG. 1 defines an area of signal intensities (FSC signal and PI signal) that is suitable for counting viable cells. All cells within this rectangle are counted."}, "[3]": {"conditions": "12.50 μg/ml final concentration"}}}
{"compound": "Nc1nc(F)nc2c1ncn2[C@@H]1O[C@H](COP(=O)(O)O)[C@@H](O)[C@@H]1O", "note": "[Fludarabine phosphate, 2-Fluoro-9-(5-O-phosphono-β-D-arabinofuranosyl)-9H-purin-6-amine]", "values": [{"measurement": "LC90", "setting": "[1]; pBMC of CLL patient #1, ex vivo", "value": 69.69}, {"measurement": "LC90", "setting": "[1]; pBMC of CLL patient #2, ex vivo", "value": 11.74}, {"measurement": "LC90", "setting": "[1]; pBMC of CLL patient #3, ex vivo", "value": 0.09}, {"measurement": "LC90", "setting": "[1]; pBMC of CLL patient #4, ex vivo", "value": 26.00}, {"measurement": "LC90", "setting": "[1]; pBMC of CLL patient #5, ex vivo", "value": 0.46}, {"measurement": "LC90", "setting": "[1]; pBMC of CLL patient #6, ex vivo", "value": 18.17}, {"measurement": "LC90", "setting": "[1]; pBMC of CLL patient #7, ex vivo", "value": 13.25}, {"measurement": "LC90", "setting": "[1]; pBMC of CLL patient #8, ex vivo", "value": 15.02}, {"measurement": "LC90", "setting": "[1]; pBMC of CLL patient #9, ex vivo", "value": 0.94}, {"measurement": "LC90", "setting": "[1]; pBMC of CLL patient #10, ex vivo", "value": 0.01}, {"measurement": "LC90", "setting": "[1]; pBMC of CLL patient #11, ex vivo", "value": 2.15}, {"measurement": "LC90", "setting": "[1]; pBMC of CLL patient #12, ex vivo", "value": 0.33}, {"measurement": "LC90", "setting": "[1]; pBMC of CLL patient #13, ex vivo", "value": 0.82}, {"measurement": "LC90", "setting": "[1]; pBMC of CLL patient #14, ex vivo", "value": 0.86}, {"measurement": "LC90", "setting": "[1]; pBMC of CLL patient #15, ex vivo", "value": 0.58}, {"measurement": "LC90", "setting": "[1]; pBMC of CLL patient #16, ex vivo", "value": 0.22}, {"measurement": "LC90", "setting": "[1]; pBMC of CLL patient #17, ex vivo", "value": 0.55}, {"measurement": "LC90", "setting": "[1]; pBMC of CLL patient #18, ex vivo", "value": 0.55}, {"measurement": "LC90", "setting": "[1]; pBMC of CLL patient #19, ex vivo", "value": 0.50}, {"measurement": "LC90", "setting": "[1]; pBMC of CLL patient #20, ex vivo", "value": 0.00}, {"measurement": "LC90", "setting": "[1]; pBMC of CLL patient #21, ex vivo", "value": 0.11}, {"measurement": "LC90", "setting": "[1]; pBMC of CLL patient #22, ex vivo", "value": 81.92}, {"measurement": "LC90", "setting": "[1]; pBMC of CLL patient #23, ex vivo", "value": 0.01}, {"measurement": "LC90", "setting": "[1]; pBMC of CLL patient #24, ex vivo", "value": 23.76}, {"measurement": "LC90", "setting": "[1]; pBMC of CLL patient #25, ex vivo", "value": 35.21}, {"measurement": "Total living cells counted in the fixed volume", "setting": "[2]; 0.46 μg/ml final concentration", "value": "1,725"}, {"measurement": "relative cell survival", "setting": "[2]; 0.46 μg/ml final concentration", "value": 41, "unit": "%"}, {"measurement": "Total living cells counted in the fixed volume", "setting": "[2]; 1.39 μg/ml final concentration", "value": 758}, {"measurement": "relative cell survival", "setting": "[2]; 1.39 μg/ml final concentration", "value": 18, "unit": "%"}, {"measurement": "Total living cells counted in the fixed volume", "setting": "[2]; 4.17 μg/ml final concentration", "value": 347}, {"measurement": "relative cell survival", "setting": "[2]; 4.17 μg/ml final concentration", "value": 8, "unit": "%"}, {"measurement": "Total living cells counted in the fixed volume", "setting": "[2]; [3]", "value": 186}, {"measurement": "relative cell survival", "setting": "[2]; [3]", "value": 4, "unit": "%"}, {"measurement": "relative cell survival", "setting": "[2]; 12.50 μg/ml final concentration, listed as fludarabine phosphate", "value": 4, "unit": "%"}]}
